According to paper PMC8620390, “New Multi-Targeted Antiproliferative Agents: Design and Synthesis of IC261-Based Oxindoles as Potential Tubulin, CK1 and EGFR Inhibitors” (Pharmaceuticals, 2021):
“And” between values parts separate entries of the source, which are not always exact repeats. Identical values can stand only once. Marks after values point to notes of the source that are not given here.

What was measured:
A549 cell line = assay: MTT assay for A549 cell line; type: cell-based
Description: MTT assay for A549 cell line. Cell Line cells were obtained from American Type Culture Collection. Cells were cultured using DMEM (Invitrogen/Life Technologies, Carlsbad, CA, USA) supplemented with 10% FBS (Hyclone, Logan, UT, USA), 10 μg/mL of insulin (Sigma, St. Louis, MI, USA), and 1% penicillin-streptomycin. All the other chemicals and reagents were from Sigma (St. Louis, MI, USA) or Invitrogen (Carlsbad, CA, USA). Cells were plated (cells density 1.2–1.8 × 10,000 cells/well) in a volume of 100 µL complete growth medium + 100 μL of the tested compound per well in a 96-well plate for 24 h before the application of MTT assay protocol as reported, Supplementary Materials.
Cell Line cells were obtained from American Type Culture Collection , cells were cultured using DMEM (Invitrogen/Life Technologies) supplemented with 10% FBS (Hyclone,), 10 ug/ml of insulin (Sigma), and 1% penicillin-streptomycin. All of the other chemicals and reagents were from Sigma, or Invitrogen.
Plate cells (cells density 1.2 – 1.8 × 10,000 cells/well) in a volume of 100µl complete growth medium + 100 ul of the tested compound per well in a 96-well plate for 24 hours before the MTT assay .
1. Remove culture medium to a centrifuge tube.
2. Briefly rinse the cell layer with 0.25% (w/v) Trypsin 0.53 mM EDTA solution to remove all traces of serum which contains Trypsin inhibitor.
3. Add 2.0 to 3.0 ml of Trypsin EDTA solution to flask and observe cells under an inverted microscope until cell layer is dispersed (usually within 5 to 15 minutes). […]
waiting for the cells to detach. Cells that are difficult to detach may be placed at 37°C […]
4. Add 6.0 to 8.0 mL of complete growth medium and aspirate cells by gently
5. […]
6. Spectrophotometrically measure absorbance at a wavelength of 570 nm. Measure the background absorbance of multiwell plates at 690 nm and subtract from the […] measurement. Tests performed in multiwell plates can be read using the appropriate type of plate reader or the contents of individual wells may be transferred to appropriate size cuvets for spectrophotometric measurement.

COLO-205 [1] = assay: Annexin V-FITC/PI apoptosis assay; type: cell-based, human
Description: COLO-205 Cells were placed in a 6-well plate at 1 × 10^5 concentration of cells/well then incubated for 24 h. COLO-205 Cells were treated with compound 4b (2.34 μM) for 24 h. The cells were then harvested, washed with PBS and stained with Annexin V-FITC and PI in binding buffer ([…] at pH 7.4) for 15 min at room temperature in the dark then analyzed by the flow cytometer.

Bcl-2 = Bcl-2 expression level in COLO-205 (qRT-PCR); type: cell-based, human
Description: (§1) qRT-PCR was used to assess the […] expression of Bax and Bcl-2. The High Pure RNA Isolation Kit (RNeasy extraction kit, up to 1 × 10^7 cells) was used to isolate total RNA from COLO-205 cells according to the manufacturer's instructions. A Transcriptor First Strand c-DNA Synthesis Kit was used to produce c-DNA from RNA according to the manufacturer's instructions; 10 μL total RNA was used for amplification Specific primers for Bax, Bcl-2, and P53 were used in PCR experiments. A LightCycler 480 PCR Master Mix was used to set up amplification reactions with a reaction volume of 20 uL. TaqMan probes and PCR primers were created and tuned. PCR Primer sequences were as following (Bax [NT], Bax [NT]. Bcl-2 [NT], and Bcl-2 […] dissociation assay was performed to evaluate any problem related to primer unspecific annealing or any secondary structure formation. Data were analyzed using SDS analysis software.

COLO-205 [2] = assay: Cell cycle analysis, DNA flow cytometry (PI); type: cell-based, human
Description: COLO-205 Cells were placed in a 6-well plate at 1 × 10^5 concentration of cells/well then incubated for 24 h. COLO-205 Cells were treated with compound 4b (2.34 μM) for 24 h. Cells were then collected and fixed for 12 h using ice cold 70% ethanol at 4 °C. Ethanol was then removed and cells were washed with cold phosphate buffer saline (PBS, 0.5 mL) and incubated for 30 min at 37 °C. The cells were stained for 30 min with propidium iodide in the dark. A flow cytometer was used to detect DNA content.

Pgp = Pgp ELISA assay in MCF-7 cells; type: in vitro ADME, human
Description: PgP concentration was measured using ELISA kit Cat No: MBS722065) for human PgP assay. The Pgp ELISA kit employs a competitive enzyme immunoassay technique using a polyclonal anti-Pgp antibody and a PgpHRP conjugate. The test sample and buffer were incubated together with the PgpHRP conjugate on a precoated plate for one hour. After the incubation period, the wells were decanted and washed five times. The wells were then incubated with a substrate for the HRP enzyme. The enzyme-substrate reaction product formed a blue complex. Finally, a stop solution was added to stop the reaction, which then turned the solution yellow. Color intensity was measured spectrophotometrically at 450 nm in a microplate reader. The intensity of the color was inversely proportional to the Pgp concentration, since the Pgp of the samples and the PgpHRP conjugate competed for the binding site of the anti-Pgp antibody. Because the number of sites is limited, there were fewer sites left to bind to the PgpHRP conjugate as the sample Pgp occupies more sites. A standard curve was drawn that relates the intensity of the color to the concentration of the standards. The Pgp concentration in each sample was interpolated from this standard curve.

Bax = Bax expression level in COLO-205 (qRT-PCR); type: cell-based, human; settings: COLO-205, 4b 2.34 μM, vs DMSO-treated control
Description: as §1

[3] = COLO-205, 4b 2.34 μM, 24 h, annexin V-FITC

Row | Structure (SMILES) | IC50 (A549 cell line; Homo sapiens, A549) | IC50 (A549 cell line; listed as 4a (IC261)) | Apoptosis Early (COLO-205 [1]; [3]) | Apoptosis Late (COLO-205 [1]; [3]) | Apoptosis Total (COLO-205 [1]; [3]) | Necrosis (COLO-205 [1]; COLO-205, 4b 2.34 μM, 24 h, annexin V-FITC/PI) | overall effect (cytotoxic vs cytostatic) (COLO-205 [1]; COLO-205, annexin V/PI) | early and late apoptosis, times compared to the control (COLO-205 [1]; COLO-205, vs DMSO control) | necrosis, times compared to the control (COLO-205 [1]; COLO-205, vs DMSO control) | Bcl-2 level, fold change (Bcl-2; COLO-205, 4b 2.34 μM, vs control) | Bcl-2 protein level down-regulation, fold lower than untreated cells (Bcl-2; COLO-205, vs untreated COLO cells) | DNA content %G0-G1 (COLO-205 [2]; COLO-205, 4b 2.34 μM, 24 h) | DNA content %G2/M (COLO-205 [2]; COLO-205, 4b 2.34 μM, 24 h) | DNA content %Pre-G1 (COLO-205 [2]; COLO-205, 4b 2.34 μM, 24 h) | DNA content %S (COLO-205 [2]; COLO-205, 4b 2.34 μM, 24 h) | increase in cells at pre-G1 phase, fold (COLO-205 [2]; COLO-205, vs untreated control) | Pgp occupied by compound (Pgp) | Bax expression level, fold change (Bax)
1 | COc1cc(OC)c(/C=C2/C(=O)Nc3ccccc32)c(OC)c1 [Compound 4a, (E)-3-(2,4,6-trimethoxybenzylidene)indolin-2-one, reference compound] | 28 µM | 28.4 µM |  |  |  |  |  |  |  |  |  |  |  |  |  |  |  | 
2 | COc1cc(OC)c(/C=C2/C(=O)Nc3cc(Cl)ccc32)c(OC)c1 [Compound 4b, (E)-6-chloro-3-(2,4,6-trimethoxybenzylidene)indolin-2-one] | 9.5 µM |  | 2.61% | 21.31% | 41.28% | 17.36% | cytotoxic, rather than cytostatic | 27.81 times | 11.05 times | 0.242 fold and 0.24 fold | 4.16 fold | 47.15% | 2.94 * % | 41.28% and 41.28 * % | 49.91% | 16.99 fold | around 35% | 5.104 fold and 5.10 fold
